Results taken from the supplement of paper PMC10307832.

What was measured:
Test in all cases: relative viability (nuclei count vs DMSO), 5 days (fraction); higher = more cells survive
Imatinib + Vorinostat = compound: Cc1ccc(NC(=O)c2ccc(CN3CCN(C)CC3)cc2)cc1Nc1nccc(-c2cccnc2)n1 [Imatinib] + O=C(CCCCCCC(=O)Nc1ccccc1)NO [Vorinostat] (partner 1 µM)
Procedure, shortened: (§1)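 Lung cancer cell lines, seeded in 1536-well plates, were treated the following day by pin tool with a single drug or with five library-drug doses (not always all listed) in √10 steps on top of a fixed anchor-drug dose. Cells were fixed and nuclei stained in one step after 5 days, and nuclei were counted. Relative viability is the nuclei count for treated wells divided by that for vehicle wells, reported as medians of duplicate plates.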

Imatinib + Pemetrexed = compound: Cc1ccc(NC(=O)c2ccc(CN3CCN(C)CC3)cc2)cc1Nc1nccc(-c2cccnc2)n1 [Imatinib] + Nc1nc2[nH]cc(CCc3ccc(C(=O)N[C@@H](CCC(=O)O)C(=O)O)cc3)c2c(=O)[nH]1 [Pemetrexed] (partner 0.2 µM)
Procedure, shortened: as §1

Imatinib + Bortezomib = compound: Cc1ccc(NC(=O)c2ccc(CN3CCN(C)CC3)cc2)cc1Nc1nccc(-c2cccnc2)n1 [Imatinib] + CC(C)C[C@H](NC(=O)[C@H](Cc1ccccc1)NC(=O)c1cnccn1)B(O)O [Bortezomib] (partner 0.002 µM)
Procedure, shortened: as §1

Imatinib + Foretinib = compound: Cc1ccc(NC(=O)c2ccc(CN3CCN(C)CC3)cc2)cc1Nc1nccc(-c2cccnc2)n1 [Imatinib] + COc1cc2c(Oc3ccc(NC(=O)C4(C(=O)Nc5ccc(F)cc5)CC4)cc3F)ccnc2cc1OCCCN1CCOCC1 [Foretinib] (partner 0.25 µM)
Procedure, shortened: as §1

Cell Line	relative viability (Imatinib + Vorinostat; first compound 0.02 µM)	relative viability (Imatinib + Vorinostat; first compound 0.06325 µM)	relative viability (Imatinib + Vorinostat; first compound 0.2 µM)	relative viability (Imatinib + Vorinostat; first compound 0.6325 µM)	relative viability (Imatinib + Vorinostat; first compound 2 µM)	relative viability (Imatinib + Pemetrexed; first compound 0.02 µM)	relative viability (Imatinib + Pemetrexed; first compound 0.2 µM)	relative viability (Imatinib + Pemetrexed; first compound 0.6325 µM)	relative viability (Imatinib + Pemetrexed; first compound 2 µM)	relative viability (Imatinib + Bortezomib; first compound 0.02 µM)	relative viability (Imatinib + Bortezomib; first compound 0.06325 µM)	relative viability (Imatinib + Bortezomib; first compound 0.2 µM)	relative viability (Imatinib + Bortezomib; first compound 0.6325 µM)	relative viability (Imatinib + Bortezomib; first compound 2 µM)	relative viability (Imatinib + Foretinib; first compound 0.02 µM)	relative viability (Imatinib + Foretinib; first compound 0.06325 µM)	relative viability (Imatinib + Foretinib; first compound 0.2 µM)	relative viability (Imatinib + Foretinib; first compound 0.6325 µM)	relative viability (Imatinib + Foretinib; first compound 2 µM)	relative viability (Imatinib + Pemetrexed; first compound 0.06325 µM)
NCI-H650	0.388	0.597	0.448	0.466	0.466	0.986	0.834	0.951	0.875	0.893	0.823	0.805	1.03	0.616	1.07	0.78	1.03	1.17	0.977	
NCI-H2170	0.972	0.845	0.834	0.775	0.792	0.343	0.267	0.256	0.274						1.01	1.03	0.996	1.02	1	0.277
NCI-H441	0.96	1.07	0.893	0.858	0.737	0.278	0.27	0.265	0.24	1.12	0.616	0.543	0.439	0.435	0.72	1.1	1.11	1.16	0.916	0.262
HCC-366	0.421	0.307	0.467	0.369	0.368	0.178	0.189	0.173	0.128	1.46		1.5	1.07	0.929	0.998		0.942	0.982	1.01	0.197
NCI-H2009	0.805	0.646	0.554	0.794	0.758	1.11	1.05	0.984	0.993	1.05	0.476	1.08	1	0.906	1.29		1.27	1.25	1.23	1.17
NCI-H1792						1.06	0.848		0.748	1.21	0.951	0.675	0.861	0.935						0.931
SW 900	0.615	0.564	0.538	0.654	0.409	0.465	0.418	0.47	0.425						0.879	1.04	1.09	0.717	1.04	0.393
COR-L23	0.523	0.519	0.424	0.399	0.41	0.196	0.209	0.196	0.159	1.38	1.03	1.2	1.18	0.947		1	1.01	0.984	1.01	0.206
SK-LU-1	0.87	0.832	0.798	0.793	0.748	1.04	1.1	1.03	1.04	1.59	1.22	1.31	1.1	1.26	0.978	0.888	0.892	0.73	0.869	1.2
NCI-H23	0.686	0.669	0.578	0.453	0.488	0.692			0.571	1.29	0.95	1.13	1.03		1.13	1.15	1.2	1.07	1.13	0.69
NCI-H1944	0.605	0.573	0.536	0.512	0.439	0.881	0.695	0.656	0.561						0.923	0.946	0.964	0.851	0.852	0.642
NCI-H661	0.823	0.87	0.845	0.778	0.74	0.915	0.93	0.931	0.936	0.81	0.613	0.821	0.607	0.852	1	1.04	1.1	0.94	1.02	1.09
NCI-H1395	0.687		0.67	0.698	0.594	0.807	0.955	1.04	0.784						0.952	1.15	1		1.02	
LCLC-97TM1	0.798		0.959	0.855	0.767	0.183	0.197	0.165	0.184	0.552			0.741	0.524	0.934		1.03	0.927	0.905	
EPLC-272H	0.351			0.309	0.422	0.261		0.328	0.336	0.98		1.15	1.06	1.06	0.938		0.819	0.558	0.59	
EKVX	0.665		0.753	0.881	0.699	0.442	0.509	0.391		1.03	1.14	1.13	1.15	1.09		0.585	0.68	0.736	0.988	
NCI-H1975	0.698	0.741	0.73	0.686	0.686	0.308	0.299	0.309	0.284	0.484	0.437	0.338	0.304	0.356	1.09	0.986	0.879	0.954	0.871	0.299
NCI-H322M	0.889	0.873	0.928	0.775	0.876	0.677	0.63	0.563	0.63	1.16	1.34	1.26	1.1	1.1	1.09	1.03	1.01	0.883	0.935	0.613
NCI-H2347	0.568		0.585	0.552	0.569	0.371	0.416	0.467	0.416	0.846		1.04	1	0.876			0.905	0.703	1.1	0.44
NCI-H1355	0.733		0.688	0.579	0.609	1.14	1.11	1.08	1.01	1.26		1.31	1.13	1.18	1.05		1.07	0.964	0.983	
NCI-H1650	0.605	0.527	0.477	0.441	0.452	0.414	0.362	0.335	0.416	0.211	0.204	0.22	0.22	0.233	0.962		1.01	1.2	1.06	0.405

Cell Line	relative viability (Imatinib + Vorinostat; first compound 0.02 µM)	relative viability (Imatinib + Vorinostat; first compound 0.06325 µM)	relative viability (Imatinib + Vorinostat; first compound 0.2 µM)	relative viability (Imatinib + Vorinostat; first compound 0.6325 µM)	relative viability (Imatinib + Vorinostat; first compound 2 µM)	relative viability (Imatinib + Pemetrexed; first compound 0.02 µM)	relative viability (Imatinib + Pemetrexed; first compound 0.2 µM)	relative viability (Imatinib + Pemetrexed; first compound 0.6325 µM)	relative viability (Imatinib + Pemetrexed; first compound 2 µM)	relative viability (Imatinib + Bortezomib; first compound 0.02 µM)	relative viability (Imatinib + Bortezomib; first compound 0.06325 µM)	relative viability (Imatinib + Bortezomib; first compound 0.2 µM)	relative viability (Imatinib + Bortezomib; first compound 0.6325 µM)	relative viability (Imatinib + Bortezomib; first compound 2 µM)	relative viability (Imatinib + Foretinib; first compound 0.02 µM)	relative viability (Imatinib + Foretinib; first compound 0.06325 µM)	relative viability (Imatinib + Foretinib; first compound 0.2 µM)	relative viability (Imatinib + Foretinib; first compound 0.6325 µM)	relative viability (Imatinib + Foretinib; first compound 2 µM)	relative viability (Imatinib + Pemetrexed; first compound 0.06325 µM)
NCI-H727	1.28			1.14	1.34					0.93	0.812		0.868	0.745	0.969	0.898	0.891	0.712	0.834	
RERF-LC-KJ	0.698	0.535		0.662	0.683	0.448	0.507	0.487	0.43	1.13	1.1	1.32		0.909	0.909	0.757		0.794	0.834	0.369
PC-3 [JPC-3]	0.882			0.899	0.727	1.28		1.16	1.07	0.887		0.832	0.864	0.711	1.12		1.09	1.05	0.942	
PC-14	0.902	0.472	0.8	0.56	0.791	0.143	0.135	0.131	0.137	0.923	0.911	0.96	0.949	0.844	0.934	0.84	1.08	0.934	0.983	0.16
ABC-1	1.21		1.37	1.02	1.24					0.311		0.282	0.235	0.348	0.739		0.904	1.13	0.922	
SW 1573	0.802	0.392	0.973	0.9	0.709	0.898		0.86	0.811	1.05	1.43	1.2	1.03	1.12	1.04	0.469	1.03	0.893	0.908	0.354
UMC-11	0.35	0.377	0.36	0.412	0.369	0.906	0.864	0.811	0.781	0.707	0.841	0.939	0.844	0.668	0.981	1.31	0.973	1.14	1.11	0.972
NCI-H1793	0.703		0.94	0.716	0.565	0.945	1	1.01	0.792						0.827		0.919	0.682	0.715	
ChaGo-K-1	0.804		0.79	0.761	0.697	0.263	0.255	0.268	0.251	0.975	1.37	1.01	1.15		0.921	0.936	0.916	0.916	0.958	
A-427						1.05	1.02		0.971	1.11		1.11	1.05	0.853	1.13		1	0.946	1.01	1.08
NCI-H358	0.863	0.83	0.642	0.692	0.729	0.167	0.189	0.171	0.178						0.685	0.519	0.726	0.619	0.648	0.169
IA-LM		0.357	1.14	1.16	0.923					0.767	1.03	0.937	0.744	0.784	1.34	1.2	1.06	1.4	1.17	
NCI-H1703										0.289	0.29	0.138	0.214	0.186	0.329	0.397	0.372	0.402	0.347	
LK-2	0.323	0.246	0.286		0.159	0.272	0.296		0.272						1.18	0.908	1.65	0.83	1.32	0.29
NCI-H2342	0.766	0.789	0.772	0.865	0.745	0.688	0.834	0.738							1.15	1.25	1.18	0.97	0.966	0.665
Calu-6										1.13	1.06	1.01	1.08	0.867	1.08	1.01	1.01	0.925	0.891	
HCC-44	1.12		1.14	1.14	1.04	0.653	0.68	0.671	0.544	1.04	0.945	0.979	0.896	0.813						
SK-MES-1		1.37	1.29		1.09		1.04	0.889	0.857						0.957	0.915	1.03	0.786	0.963	1.02
NCI-H1299										1.05	1.01	0.98	1.03	1.03	1.11	1.18	1.16	1.09		
EBC-1										0.556	0.623	0.52	0.58	0.423	0.114	0.108	0.109	0.0904	0.0924	
